Assay results: article PMC11823630, “In vitro potentiation of tetracyclines in Pseudomonas aeruginosa by RW01, a new cyclic peptide” (Antimicrobial Agents and Chemotherapy, 2024)
≈ marks a conversion by molar mass, not a printed value.

Experiments:
[1] = tested on: PAO1 mutant MIN16_3, nfxB(nt79∆14), pilB(N349K); assay: MIC, Sensititre custom plate; format: cell-based; settings: Pseudomonas aeruginosa, PAO1, read-out: MIC, Sensititre
Method: (§1) Selection of resistant mutants was performed for minocycline with and without RW01 in three independent replicates for wild-type P. aeruginosa reference strain PAO1. Tubes containing Mueller-Hinton broth (MHB) were inoculated and incubated for 24 h at 37°C. Afterward, 1/100 dilution of each tube was incubated at 37°C in MHB to late-exponential growth phase, measured by spectrophotometry at OD600. […] A control plate without antibiotic was included as inoculum control. After overnight incubation, colony counting of each treatment was performed to analyze the generation of resistant population. The mutant prevention concentration (MPC) was defined as the lowest concentration of antibiotic yielding no growth of resistant mutants. Selected mutants were checked for susceptibility profiles by using a Sensititre custom plate (Thermo Fisher Scientific, Massachusetts, USA) for Gram-negative bacteria, following the manufacturer’s instructions.

[2] = tested on: PAO1 mutant MIN4_RW01_1, pmrB(R429H); assay: MIC, Sensititre custom plate; format: cell-based; settings: Pseudomonas aeruginosa, PAO1, read-out: MIC, Sensititre
Method: as §1

[3] = tested on: PAO1 mutant MIN8_4, pilZ(nt18InsT); assay: MIC, Sensititre custom plate; format: cell-based; settings: Pseudomonas aeruginosa, PAO1, read-out: MIC, Sensititre
Method: as §1

[4] = tested on: PAO1 mutant MIN2_RW01_4, pmrB(M292T); assay: MIC, Sensititre custom plate; format: cell-based; settings: Pseudomonas aeruginosa, PAO1, read-out: MIC, Sensititre
Method: as §1

[5] = tested on: PAO1 mutant MIN4_RW01_4, pmrB(Y98N); assay: MIC, Sensititre custom plate; format: cell-based; settings: Pseudomonas aeruginosa, PAO1, read-out: MIC, Sensititre
Method: as §1

[6] = tested on: PAO1 mutant MIN8_3, pilZ(nt18InsT); assay: MIC, Sensititre custom plate; format: cell-based; settings: Pseudomonas aeruginosa, PAO1, read-out: MIC, Sensititre
Method: as §1

[7] = tested on: PAO1 mutant MIN16_1, nalD(T43P); assay: MIC, Sensititre custom plate; format: cell-based; settings: Pseudomonas aeruginosa, PAO1, read-out: MIC, Sensititre
Method: as §1

[8] = tested on: PAO1 mutant MIN4_RW01_3, pmrB(M292T); assay: MIC, Sensititre custom plate; format: cell-based; settings: Pseudomonas aeruginosa, PAO1, read-out: MIC, Sensititre
Method: as §1

[9] = tested on: PAO1 mutant MIN16_4, nalC(T50P), pilM(Q62X); assay: MIC, Sensititre custom plate; format: cell-based; settings: Pseudomonas aeruginosa, PAO1, read-out: MIC, Sensititre
Method: as §1

[10] = tested on: PAO1 mutant MIN32_1, mexR(R63H), pilB(N349K), PA0646(V316G); assay: MIC, Sensititre custom plate; format: cell-based; settings: Pseudomonas aeruginosa, PAO1, read-out: MIC, Sensititre
Method: as §1

[11] = tested on: PAO1 mutant MIN2_RW01_2, pmrB(M292T); assay: MIC, Sensititre custom plate; format: cell-based; settings: Pseudomonas aeruginosa, PAO1, read-out: MIC, Sensititre
Method: as §1

[12] = tested on: PAO1 mutant MIN16_2, nalC(aa9∆4), pilQ(nt46∆1); assay: MIC, Sensititre custom plate; format: cell-based; settings: Pseudomonas aeruginosa, PAO1, read-out: MIC, Sensititre
Method: as §1

[13] = tested on: PAO1 mutant MIN8_2, pilZ(nt18InsT); assay: MIC, Sensititre custom plate; format: cell-based; settings: Pseudomonas aeruginosa, PAO1, read-out: MIC, Sensititre
Method: as §1

[14] = tested on: PAO1 mutant MIN8_1, nalD(R3C), pilM(Q62X); assay: MIC, Sensititre custom plate; format: cell-based; settings: Pseudomonas aeruginosa, PAO1, read-out: MIC, Sensititre
Method: as §1

[15] = tested on: PAO1 mutant MIN1_RW01_3, pmrB(V215L); assay: MIC, Sensititre custom plate; format: cell-based; settings: Pseudomonas aeruginosa, PAO1, read-out: MIC, Sensititre
Method: as §1

[16] = tested on: PAO1 mutant MIN2_RW01_1, pmrB(V215L); assay: MIC, Sensititre custom plate; format: cell-based; settings: Pseudomonas aeruginosa, PAO1, read-out: MIC, Sensititre
Method: as §1

[17] = tested on: PAO1 mutant MIN1_RW01_1, pmrB(Y98N); assay: MIC, Sensititre custom plate; format: cell-based; settings: Pseudomonas aeruginosa, PAO1, read-out: MIC, Sensititre
Method: as §1

[18] = tested on: PAO1 mutant MIN1_RW01_2, mexR(G58E), pilB(G326D), hutC(Y181X); assay: MIC, Sensititre custom plate; format: cell-based; settings: Pseudomonas aeruginosa, PAO1, read-out: MIC, Sensititre
Method: as §1

P. aeruginosa PAO1, WT = assay: MIC, Sensititre custom plate; format: cell-based; settings: Pseudomonas aeruginosa, PAO1, read-out: MIC, Sensititre
Method: as §1

[19] = tested on: PAO1 mutant MIN2_RW01_3, parS(V152A); assay: MIC, Sensititre custom plate; format: cell-based; settings: Pseudomonas aeruginosa, PAO1, read-out: MIC, Sensititre
Method: as §1

[20] = tested on: PAO1 mutant MIN1_RW01_4, pmrB(F124L); assay: microbe, parasite or virus in culture; format: cell-based; settings: Pseudomonas aeruginosa, PAO1, read-out: MIC, Sensititre
Method: as §1

[21] = tested on: PAO1 mutant MIN4_RW01_2, pmrB(F124S); assay: microbe, parasite or virus in culture; format: cell-based; settings: Pseudomonas aeruginosa, PAO1, read-out: MIC, Sensititre
Method: as §1

P. aeruginosa PAOUW∆oprF = assay: MIC, CLSI broth microdilution in BD Phoenix AST Broth; format: cell-based, Pseudomonas aeruginosa; settings: Pseudomonas aeruginosa, strain PAOUWΔoprF; agent alone; 37°C, 18–22 h; three biological replicates
Method: (§2) MIC for RW01 was also tested.
(§3) FIC of RW01 (FICRW01)=MIC of RW01 in combination/MIC of RW01 alone,FIC of antibiotic (FICATB)=MIC of ATB in combination/MIC of ATB alone,FICI=FICRW01 +FICATB.
(§4) FICI was interpreted as follows: synergistic effect if FICI is ≤0.5; additive effect if 0.5 < FICI ≤ 1.0; indifferent effect if 1.0 < FICI ≤ 2.0; and finally, antagonistic effect if FICI is >2.0. The average FICI considering the antibiotic MIC (no growth in any of the replicates) at different concentrations of RW01 was calculated ([28]).

P. aeruginosa PAOΔmexR = assay: as above; format: cell-based, Pseudomonas aeruginosa
Method: as §2, §3, §4

P. aeruginosa 41A = assay: as above; format: cell-based, Pseudomonas aeruginosa; settings: Pseudomonas aeruginosa; strain 41A; agent alone; 37°C, 18–22 h; three biological replicates
Method: as §2, §3, §4

P. aeruginosa PAO1 = assay: as above; format: cell-based, Pseudomonas aeruginosa; settings: Pseudomonas aeruginosa, PAO1, strain PAO1; agent alone; 37°C, 18–22 h; three biological replicates; read-out: MIC
Method: as §2, §3, §4

P. aeruginosa PAOUW = assay: as above; format: cell-based, Pseudomonas aeruginosa; settings: Pseudomonas aeruginosa, strain PAOUW; agent alone; 37°C, 18–22 h; three biological replicates; read-out: MIC
Method: as §2, §3, §4

P. aeruginosa 125B = assay: as above; format: cell-based, Pseudomonas aeruginosa; settings: Pseudomonas aeruginosa; strain 125B; agent alone; 37°C, 18–22 h; three biological replicates
Method: as §2, §3, §4

P. aeruginosa PAOΔmexZ = assay: as above; format: cell-based, Pseudomonas aeruginosa; settings: Pseudomonas aeruginosa, strain PAOΔmexZ; agent alone; 37°C, 18–22 h; three biological replicates
Method: as §2, §3, §4

P. aeruginosa 125A = assay: as above; format: cell-based, Pseudomonas aeruginosa; settings: Pseudomonas aeruginosa; strain 125A; agent alone; 37°C, 18–22 h; three biological replicates
Method: as §2, §3, §4

P. aeruginosa PAOΔoprM = assay: as above; format: cell-based, Pseudomonas aeruginosa; settings: Pseudomonas aeruginosa
Method: as §2, §3, §4

P. aeruginosa 41B = assay: as above; format: cell-based, Pseudomonas aeruginosa; settings: Pseudomonas aeruginosa; strain 41B; agent alone; 37°C, 18–22 h; three biological replicates
Method: as §2, §3, §4

Compound | MIC [1] [µg/mL] | MIC [2] [µg/mL] | MIC [3] [µg/mL] | MIC [4] [µg/mL] | MIC [5] [µg/mL] | MIC [6] [µg/mL] | MIC [7] [µg/mL] | MIC [8] [µg/mL] | MIC [9] [µg/mL] | MIC [10] [µg/mL] | MIC [11] [µg/mL] | MIC [12] [µg/mL] | MIC [13] [µg/mL] | MIC [14] [µg/mL] | MIC [15] [µg/mL] | MIC [17] [µg/mL] | MIC [18] [µg/mL] | MIC (P. aeruginosa PAO1, WT) [µg/mL] | MIC [19] [µg/mL] | MIC [21] [µg/mL] | also measured
NCC[C@H](O)C(=O)N[C@@H]1C[C@H](N)[C@@H](O[C@H]2O[C@H](CN)[C@@H](O)[C@H](O)[C@H]2O)[C@H](O)[C@H]1O[C@H]1O[C@H](CO)[C@@H](O)[C@H](N)[C@H]1O [AMI, amikacin] | ≤ 2 | 2 to 4 (≈ 3.42 to 6.83 µM) | ≤ 2 | 4 (≈ 6.83 µM) | 4 (≈ 6.83 µM) | ≤ 2 | 4 (≈ 6.83 µM) | 4 (≈ 6.83 µM) | ≤ 2 | ≤ 2 | 4 (≈ 6.83 µM) | ≤ 2 | ≤ 2 | ≤ 2 | 4 (≈ 6.83 µM) | 4 (≈ 6.83 µM) | ≤ 2 | ≤ 2 | 8 (≈ 13.7 µM) | 4 (≈ 6.83 µM) | MIC [16]: 4 µg/mL (≈ 6.83 µM); MIC [20]: ≤ 2 µg/mL
C[C@H]1[C@H](NC(=O)/C(=N\OC(C)(C)C(=O)O)c2csc(N)n2)C(=O)N1S(=O)(=O)O [Aztreonam, aztreonam] | 2 to 4 (≈ 4.59 to 9.19 µM) | 16 (≈ 36.7 µM) | 16 (≈ 36.7 µM) |  | ≤ 2 | 16 (≈ 36.7 µM) | 16 (≈ 36.7 µM) | ≤ 2 | 16 (≈ 36.7 µM) | 16 (≈ 36.7 µM) | 4 (≈ 9.19 µM) | 8 to 16 (≈ 18.4 to 36.7 µM) |  |  | ≤ 2 | ≤ 2 | 16 (≈ 36.7 µM) | 2 to 4 (≈ 4.59 to 9.19 µM) | 4 (≈ 9.19 µM) | ≤ 2 | MIC (P. aeruginosa PAOUW∆oprF): 8 µg/mL; MIC (P. aeruginosa PAOΔmexR; Pseudomonas aeruginosa): 4 µg/mL; MIC (P. aeruginosa 41A): 8 µg/mL; MIC (P. aeruginosa PAO1): 8 µg/mL; MIC (P. aeruginosa PAOUW): 2 µg/mL; MIC (P. aeruginosa 125B): 8 µg/mL; MIC (P. aeruginosa PAOΔmexZ): 8 µg/mL; MIC (P. aeruginosa 125A): 8 µg/mL; MIC (P. aeruginosa PAOΔoprM): 0.5 µg/mL; MIC (P. aeruginosa 41B): 8 µg/mL; MIC [16]: 4 to 8 µg/mL (≈ 9.19 to 18.4 µM)
O=C(O)c1cn(C2CC2)c2cc(N3CCNCC3)c(F)cc2c1=O [CIP, ciprofloxacin] | 4 (≈ 12.1 µM) | 0.5 (≈ 1.51 µM) | 0.5 (≈ 1.51 µM) | 0.5 to 1 (≈ 1.51 to 3.02 µM) |  | 0.5 (≈ 1.51 µM) |  |  | 0.5 (≈ 1.51 µM) | 0.5 (≈ 1.51 µM) |  |  |  |  |  |  | 0.5 (≈ 1.51 µM) |  | 0.5 (≈ 1.51 µM) |  | 
CO/N=C(\C(=O)N[C@@H]1C(=O)N2C(C(=O)[O-])=C(C[N+]3(C)CCCC3)CS[C@H]12)c1csc(N)n1 [Cefepime, cefepime] | 4 (≈ 8.32 µM) | 4 to 8 (≈ 8.32 to 16.6 µM) | 4 (≈ 8.32 µM) | 4 (≈ 8.32 µM) | ≤ 1 | 4 (≈ 8.32 µM) | 4 (≈ 8.32 µM) | ≤ 1 | 4 (≈ 8.32 µM) | 4 (≈ 8.32 µM) | 4 (≈ 8.32 µM) | 4 (≈ 8.32 µM) | 4 (≈ 8.32 µM) | 4 (≈ 8.32 µM) | ≤ 1 | ≤ 1 | 4 (≈ 8.32 µM) | ≤ 1 | 4 (≈ 8.32 µM) | ≤ 1 | MIC (P. aeruginosa PAOUW∆oprF): 0.5 µg/mL; Antibiotic MIC + RW01 100 mg/L (P. aeruginosa PAOΔmexR; strain PAOΔmexR, MIC of the antibiotic with fixed 100 mg/L RW01): 0.5 µg/mL; Potentiation (fold) (P. aeruginosa PAOΔmexR; strain PAOΔmexR, antibiotic MIC alone vs with RW01 100 mg/L): ≥ 8 fold; MIC (P. aeruginosa 41A): 8 µg/mL; MIC (P. aeruginosa PAO1): 2 µg/mL; MIC (P. aeruginosa PAOUW): 4 µg/mL; MIC (P. aeruginosa 125B): 4 µg/mL; MIC (P. aeruginosa PAOΔmexZ): 2 µg/mL; MIC (P. aeruginosa 125A): 4 µg/mL; MIC (P. aeruginosa PAOΔoprM): 1 µg/mL; MIC (P. aeruginosa 41B): 8 µg/mL
